Source: ChEMBL document CHEMBL1201862, “PubChem BioAssay data set” (2004)
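Each compound was tested at five concentrations against cells in 96-well plates for 48 hours. GI50: concentration for 50% inhibition of growth.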 The source made the active and inactive calls. Rule as the data show it: active = GI50 up to about 1.1 µM and inactive = higher.

What was measured:
Assay in all cases: NCI-60 cell line screen, 48 h
786-0 = system: 786-0
COLO 205 = system: COLO 205
EKVX = system: EKVX
HCC 2998 = system: HCC 2998
HOP-62 = system: HOP-62
HT-29 = system: HT-29
K562 = system: K562
LOX IMVI = system: LOX IMVI
MDA-N = system: MDA-N
NCI-H226 = system: NCI-H226
NCI-H522 = system: NCI-H522
NCI/ADR-RES = system: NCI/ADR-RES
RXF 393 = system: RXF 393
SF-268 = system: SF-268
SN12C = system: SN12C
SR = system: SR
SW-620 = system: SW-620
CCRF-CEM = system: CCRF-CEM
SF-539 = system: SF-539
SK-MEL-28 = system: SK-MEL-28

Which results are given for `NC1=NC(=O)[C@H](CSCc2ccccc2)N1C(=O)OCc1ccccc1`?
GI50 (786-0): > 100 µM (inactive); GI50 (COLO 205): > 100 µM (inactive); GI50 (EKVX): > 100 µM (inactive); GI50 (HCC 2998): > 100 µM (inactive); GI50 (HOP-62): > 100 µM (inactive); GI50 (HT-29): > 100 µM (inactive); GI50 (K562): > 100 µM (inactive); GI50 (LOX IMVI): > 100 µM (inactive); GI50 (MDA-N): > 100 µM (inactive); GI50 (NCI-H226): > 100 µM (inactive); GI50 (NCI-H522): > 100 µM (inactive); GI50 (NCI/ADR-RES): > 100 µM (inactive); GI50 (RXF 393): > 100 µM (inactive); GI50 (SF-268): > 100 µM (inactive); GI50 (SN12C): > 100 µM (inactive); GI50 (SR): > 100 µM (inactive); GI50 (SW-620): > 100 µM (inactive)

How did the GI50 (786-0) turn out when `CCC1(O)CC(OC2CC(N(C)C)C(OC3CC(O)C(OC4OC(C)C(=O)C=C4N)C(C)O3)C(C)O2)c2c(O)c3c(c(O)c2C1C(=O)OC)C(=O)c1cccc(O)c1C3=O` (configuration not stated) was run?
Its GI50 is 0.0021 µM (active).

What about the GI50 (CCRF-CEM) of the same molecule?
The GI50 was 0.00284 µM (active).

And the GI50 (COLO 205)?
The GI50 was 0.00376 µM (active).

And the GI50 (EKVX)?
The GI50 was 0.0103 µM (active).

What about the GI50 (HCC 2998) of the same molecule?
The GI50 was 0.0302 µM (active).

And the GI50 (HOP-62)?
The GI50 was 0.0239 µM (active).

And the GI50 (HT-29)?
Its GI50 is 0.00475 µM (active).

What about the GI50 (K562) of the same molecule?
Its GI50 is 0.000196 µM (active).

What about the GI50 (LOX IMVI) of the same molecule?
The GI50 was 0.0115 µM (active).

And the GI50 (MDA-N)?
The GI50 was 0.0048 µM (active).

And the GI50 (NCI-H226)?
The GI50 was 0.0139 µM (active).

And the GI50 (NCI-H522)?
The GI50 was 0.0121 µM (active).

And the GI50 (NCI/ADR-RES)?
The GI50 was 0.0916 µM (active).

What about the GI50 (SF-268) of the same molecule?
Its GI50 is 0.0925 µM (active).

What about the GI50 (SF-539) of the same molecule?
The GI50 was 0.00759 µM (active).

What about the GI50 (SK-MEL-28) of the same molecule?
Its GI50 is 0.0105 µM (active).

And the GI50 (SN12C)?
Its GI50 is 0.0259 µM (active).

And the GI50 (SR)?
Its GI50 is 0.00413 µM (active).

What about the GI50 (SW-620) of the same molecule?
The GI50 was 0.00225 µM (active).

For `CCCCCCCCCCCC(=O)c1c(O)cc(C)oc1=O`, which GI50 (786-0) is on record?
The GI50 was 80.9 µM (inactive).

And the GI50 (CCRF-CEM)?
Its GI50 is 23.7 µM (inactive).

And the GI50 (COLO 205)?
The GI50 was 26.5 µM (inactive).

What about the GI50 (EKVX) of the same molecule?
The GI50 was 38.5 µM (inactive).

What about the GI50 (HCC 2998) of the same molecule?
Its GI50 is 42 µM (inactive).

And the GI50 (HOP-62)?
The GI50 was 60 µM (inactive).

And the GI50 (HT-29)?
Its GI50 is 66.7 µM (inactive).

What about the GI50 (K562) of the same molecule?
Its GI50 is 28.6 µM (inactive).

What about the GI50 (LOX IMVI) of the same molecule?
Its GI50 is 28.1 µM (inactive).

What about the GI50 (MDA-N) of the same molecule?
Its GI50 is 34.6 µM (inactive).

And the GI50 (NCI-H226)?
Its GI50 is 45.6 µM (inactive).

And the GI50 (NCI-H522)?
Its GI50 is 42.4 µM (inactive).

What about the GI50 (NCI/ADR-RES) of the same molecule?
The GI50 was 33.4 µM (inactive).

And the GI50 (SF-268)?
The GI50 was 42.2 µM (inactive).

What about the GI50 (SF-539) of the same molecule?
Its GI50 is 23.8 µM (inactive).

And the GI50 (SK-MEL-28)?
The GI50 was 75 µM (inactive).

What about the GI50 (SN12C) of the same molecule?
The GI50 was 33.3 µM (inactive).

What about the GI50 (SR) of the same molecule?
Its GI50 is > 10 µM (inactive).

And the GI50 (SW-620)?
The GI50 was 41.1 µM (inactive).

`O=C(NCCCl)NCc1ccccc1` was tested. Which GI50 (786-0) did it give?
Its GI50 is > 100 µM (inactive).

And the GI50 (CCRF-CEM)?
The GI50 was > 100 µM (inactive).

What about the GI50 (COLO 205) of the same molecule?
The GI50 was > 100 µM (inactive).

What about the GI50 (EKVX) of the same molecule?
The GI50 was > 100 µM (inactive).

And the GI50 (HCC 2998)?
The GI50 was > 100 µM (inactive).

What about the GI50 (HOP-62) of the same molecule?
The GI50 was > 100 µM (inactive).

What about the GI50 (HT-29) of the same molecule?
Its GI50 is > 100 µM (inactive).

And the GI50 (K562)?
The GI50 was > 100 µM (inactive).

And the GI50 (LOX IMVI)?
The GI50 was > 100 µM (inactive).

What about the GI50 (MDA-N) of the same molecule?
Its GI50 is > 100 µM (inactive).

What about the GI50 (NCI-H226) of the same molecule?
The GI50 was > 100 µM (inactive).

What about the GI50 (NCI-H522) of the same molecule?
Its GI50 is > 100 µM (inactive).

What about the GI50 (NCI/ADR-RES) of the same molecule?
Its GI50 is > 100 µM (inactive).

And the GI50 (RXF 393)?
Its GI50 is > 100 µM (inactive).

And the GI50 (SF-268)?
Its GI50 is > 100 µM (inactive).

What about the GI50 (SK-MEL-28) of the same molecule?
Its GI50 is > 100 µM (inactive).

And the GI50 (SN12C)?
The GI50 was > 100 µM (inactive).

And the GI50 (SR)?
The GI50 was > 100 µM (inactive).

And the GI50 (SW-620)?
Its GI50 is > 100 µM (inactive).

`COC(=O)C1CCC(=O)N1C(c1ccc(OC)cc1)c1ccc(OC)cc1` (configuration not stated) was tested. Which GI50 (786-0) did it give?
Its GI50 is > 100 µM (inactive).

And the GI50 (CCRF-CEM)?
The GI50 was > 100 µM (inactive).

And the GI50 (COLO 205)?
The GI50 was > 100 µM (inactive).

And the GI50 (EKVX)?
The GI50 was > 100 µM (inactive).

What about the GI50 (HCC 2998) of the same molecule?
The GI50 was > 100 µM (inactive).

What about the GI50 (HOP-62) of the same molecule?
The GI50 was > 100 µM (inactive).

What about the GI50 (HT-29) of the same molecule?
The GI50 was > 100 µM (inactive).

And the GI50 (K562)?
The GI50 was > 100 µM (inactive).

And the GI50 (LOX IMVI)?
Its GI50 is > 100 µM (inactive).

What about the GI50 (MDA-N) of the same molecule?
Its GI50 is > 100 µM (inactive).

And the GI50 (NCI-H226)?
The GI50 was > 100 µM (inactive).

What about the GI50 (NCI-H522) of the same molecule?
Its GI50 is > 100 µM (inactive).

And the GI50 (NCI/ADR-RES)?
The GI50 was > 100 µM (inactive).

What about the GI50 (SF-268) of the same molecule?
The GI50 was > 100 µM (inactive).

What about the GI50 (SF-539) of the same molecule?
The GI50 was > 100 µM (inactive).

What about the GI50 (SK-MEL-28) of the same molecule?
Its GI50 is > 100 µM (inactive).

And the GI50 (SN12C)?
The GI50 was > 100 µM (inactive).

And the GI50 (SR)?
The GI50 was > 100 µM (inactive).

And the GI50 (SW-620)?
The GI50 was > 100 µM (inactive).

Which results are given for `O=c1c2cc(S(=O)(=O)Nc3ccc(Cl)cc3Cl)ccc2ncn1NS(=O)(=O)c1cccc2ccccc12`?
GI50 (786-0): 42 µM (inactive); GI50 (CCRF-CEM): 12.7 µM (inactive); GI50 (COLO 205): 43.7 µM (inactive); GI50 (EKVX): 14.7 µM (inactive); GI50 (HCC 2998): 20 µM (inactive); GI50 (HOP-62): 41.3 µM (inactive); GI50 (HT-29): 32 µM (inactive); GI50 (K562): 63.5 µM (inactive); GI50 (LOX IMVI): 15.5 µM (inactive); GI50 (MDA-N): 48 µM (inactive); GI50 (NCI-H226): 18.6 µM (inactive); GI50 (NCI-H522): 24 µM (inactive); GI50 (NCI/ADR-RES): 31.3 µM (inactive); GI50 (SF-268): 30.3 µM (inactive); GI50 (SF-539): 38.3 µM (inactive); GI50 (SK-MEL-28): 99.5 µM (inactive); GI50 (SN12C): 91.6 µM (inactive); GI50 (SR): 22.9 µM (inactive); GI50 (SW-620): 71.4 µM (inactive)
